Drawing on patent US20200390783A1, “INHIBITORS OF EGFR AND METHODS OF USE THEREOF” (DANA-FARBER CANCER INSTITUTE, INC., priority 2018, published 2020), this text covers EC50 for four molecules.

This assay addresses EGFR T790M/L858R Ba/F3 cell line (Homo sapiens, UniProt P00533, T790M/L858R, cells depend on it). Description: Ba/F3 cell proliferation model (MTS assay). Type of assay: cell-based, murine. The procedure:
The EGFR mutant L858R, Del E746_A750, L858R/T790M, DeE746_A750/T790M, L858R/T790M/C797S and Del/T790M/C797S Ba/F3 cells were previously described (Zhou et al., Nature 462, (2009), 1070-1074). All cell lines were maintained in RPMI 1640 (Cellgro; Mediatech Inc., Herndon, Calif.) supplemented with 10% FBS 100 units/mL penicillin, 100 units/mL streptomycin, and 2 mM glutamine. L858R cells were maintained in ACL-4 media (Invitrogen, Carlsbad, Calif.) supplemented with 5% FBS, 100 units/mL penicillin, 100 units/mL streptomycin, and 2 mM glutamine. The EGFR I941R mutation was introduced via site directed mutagenesis using the Quick Change Site-Directed Mutagenesis kit (Stratagene; La Jolla, Calif.) according to the manufacturer's instructions. All constructs were confirmed by DNA sequencing. The constructs were shuttled into the retroviral vector JP1540 using the BD Creator™ System (BD Biosciences). Ba/F3 cells were infected with retrovirus and according to standard protocols, as described previously (Zhou 2009). Stable clones were obtained by selection in puromycin (2 μg/ml).
Growth and inhibition of growth was assessed by MTS assay and was performed according to previously established methods (Zhou 2009). The MTS assay is a colorimetric method for determining the number of viable cells that is based on the bioreduction of MTS by cells to a formazan product that is soluble in cell culture medium and can be detected spectrophotometrically. […] All experimental points were set up in six wells and all experiments were repeated at least three times. […] The curves were fitted using a non-linear regression model with a sigmoidal dose response.
On the technique in general: Tetrazolium dyes change colour on reduction, which living cells bring about.

The mark [1] stands for this setting: absence of cetuximab, read-out: Ba/F3 cellular activity (EC50) T790M/L858R.
Where [2] appears, read: read-out: Ba/F3 cellular activity (EC50) T790M/L858R + Cetuximab, presence of 1 μg/mL cetuximab.

Molecules are shown by their SMILES. pEC50: −log10 of the molar value. Read-outs that look alike come from different tables or passages of the source. A value given as a limit tells only on which side of the number the result lay.

EGFR T790M/L858R Ba/F3 cell line, sequence (P00533 whole entry T790M/L858R): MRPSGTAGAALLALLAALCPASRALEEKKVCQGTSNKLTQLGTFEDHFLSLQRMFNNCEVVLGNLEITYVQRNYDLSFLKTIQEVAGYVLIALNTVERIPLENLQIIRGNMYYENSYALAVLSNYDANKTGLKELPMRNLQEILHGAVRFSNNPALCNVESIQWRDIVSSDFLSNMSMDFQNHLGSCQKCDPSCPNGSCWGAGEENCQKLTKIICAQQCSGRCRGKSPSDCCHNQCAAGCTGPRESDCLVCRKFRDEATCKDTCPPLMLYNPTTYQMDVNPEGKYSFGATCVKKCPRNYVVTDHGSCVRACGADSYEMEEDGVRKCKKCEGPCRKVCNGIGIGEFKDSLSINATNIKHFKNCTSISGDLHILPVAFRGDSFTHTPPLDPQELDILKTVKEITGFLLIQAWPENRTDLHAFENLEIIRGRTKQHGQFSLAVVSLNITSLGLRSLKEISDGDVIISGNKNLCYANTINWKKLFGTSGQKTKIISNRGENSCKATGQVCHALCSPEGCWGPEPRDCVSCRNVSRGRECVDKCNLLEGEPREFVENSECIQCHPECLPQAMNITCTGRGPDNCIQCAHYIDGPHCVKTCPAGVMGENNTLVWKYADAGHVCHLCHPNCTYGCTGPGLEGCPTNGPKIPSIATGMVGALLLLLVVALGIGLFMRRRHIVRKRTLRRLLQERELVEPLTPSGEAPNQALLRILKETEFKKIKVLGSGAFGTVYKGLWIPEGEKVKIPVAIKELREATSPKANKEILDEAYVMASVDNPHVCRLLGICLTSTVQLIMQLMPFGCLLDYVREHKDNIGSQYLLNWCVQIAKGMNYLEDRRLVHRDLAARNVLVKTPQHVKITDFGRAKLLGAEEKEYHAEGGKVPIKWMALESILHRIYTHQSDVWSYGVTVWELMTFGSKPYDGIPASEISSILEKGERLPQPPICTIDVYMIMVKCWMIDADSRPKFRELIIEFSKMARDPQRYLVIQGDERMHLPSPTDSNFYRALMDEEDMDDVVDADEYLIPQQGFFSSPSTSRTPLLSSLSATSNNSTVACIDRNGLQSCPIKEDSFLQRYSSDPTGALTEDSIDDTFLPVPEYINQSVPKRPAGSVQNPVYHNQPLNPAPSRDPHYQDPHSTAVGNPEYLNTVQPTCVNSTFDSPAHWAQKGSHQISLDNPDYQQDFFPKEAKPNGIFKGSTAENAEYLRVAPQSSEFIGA

For the molecule `O=C(CCl)Nc1ccc2c(c1)N(Cc1ccccc1)C(=O)c1cc(-c3ccc4[nH]ccc4c3)ccc1N2` [Compound I-2], the pEC50 was above 6.60 under setting [1] and above 6.60 under setting [2].

As to `O=C1c2cc(Br)ccc2Nc2ccc(F)cc2N1Cc1ccccc1` [I-a, 10-Benzyl-2-bromo-8-fluoro-5,10-dihydro-11H-dibenzo[b,e][1,4]diazepin-11-one], the pEC50 by setting is: under setting [1], at most 6.12; under setting [2], 6.30 to 6.60.

Regarding `C=CC(=O)Nc1ccc2c(c1)N(Cc1ccccc1)C(=O)c1cc(-c3ccc(N4CCNCC4)cc3)ccc1N2` [Compound I-3, N-(10-Benzyl-11-oxo-2-(4-(piperazin-1-yl)phenyl)-10,11-dihydro-5H-dibenzo[b,e][1,4]diazepin-8-yl)acrylamide], the pEC50 is at most 6.12 under setting [1] and at most 6.12 under setting [2].

`C=CC(=O)Nc1ccc2c(c1)N(Cc1ccccc1)C(=O)c1cc(-c3ccc4[nH]ccc4c3)ccc1N2` [Compound I-1]: the pEC50 was at most 6.12 under setting [1] and 6.12 to 6.30 under setting [2].
